The text below walks through data of patent US20230147053A1, “FUSED N-HETEROCYCLIC COMPOUNDS AND METHODS OF USE THEREOF” (Araxes Pharma LLC, priority 2017, published 2023).

In this experiment the target is T1, KRAS G12C 1-169, his-tagged protein, GDP-loaded (Homo sapiens, UniProt P01116, G12C).
T1 construct: KRAS G12C 1-169, his-tagged protein, GDP-loaded
The experiment in a line: Biochemical assay: covalent binding (modification) of KRAS G12C measured by mass spectrometry. The settings on record: covalent binding to KRAS G12C after a thirty minute incubation period. As for the experimental part: Test compounds were prepared as 10 mM stock solutions in DMSO (Fisher cat #BP-231-100). KRAS G12C 1-169, his-tagged protein, GDP-loaded was diluted to 2 μM or 0.5 μM in buffer (20 mM Hepes, 150 mM NaCl, 1 mM MgCl2). Compounds were tested for activity as follows:
Compounds were diluted to 50× final test concentration in DMSO in 96-well storage plates. Compound stock solutions were vortexed before use and observed carefully for any sign of precipitation. Dilutions were as follow: • For 100 μM final compound concentration, compounds were diluted to 5000 μM (5 μL 10 mM compound stock+5 μL DMSO and mixed well by pipetting. • For 30 μM final compound concentration, compounds were diluted to 1500 μM (3 μL 10 mM compound stock+17 μL DMSO) and mixed well by pipetting. • For 10 μM final compound concentration, compounds were diluted to 500 μM (2 μL 10 mM compound stock+38 μL DMSO) and mixed well by pipetting. 49 μL of the stock protein solution was added to each well of a 96-well PCR plate (Fisher cat #1423027). 1 μl of the diluted 50× compounds were added to appropriate wells in the PCR plate using 12-channel pipettor. Reactions were mixed carefully and thoroughly by pipetting up/down with a 200 μL multi-channel pipettor. The plate was sealed well with aluminum plate seal, and stored in drawer at room temperature for 10 minutes, 30 minutes, 2 hours or 24 hours. 5 μL of 2% formic acid (Fisher cat #A117) in de-ionized H2O was then added to each well followed by mixing with a pipette. The plate was then resealed with aluminum seal and stored on dry ice until analyzed as described below.
The above described assays were analyzed by mass spectrometry according to one of the following two procedures:
The MS instrument is set to positive polarity, 2 GHz resolution, and low mass (1700) mode and allowed to equilibrate for 30 minutes. The instrument is then calibrated, switched to acquisition mode and the appropriate method loaded.
After another 30 minute equilibration time, a blank batch (i.e., buffer) is run to ensure equipment is operating properly. The samples are thawed at 37° C. for 10 minutes, briefly centrifuged, and transfer to the bench top. Wells A1 and H12 are spiked with 1 μL 500 μM internal standard peptide, and the plates centrifuged at 2000×g for 5 minutes. The method is then run and masses of each individual well recorded.
The masses (for which integration data is desired) for each well are pasted into the platemap and exported from the analysis. Masses for the internal standards are exported as well. The data at 50 ppm is extracted for the +19 charge state, and identity of well A1 is assigned using the internal standard spike and integrated. Peak data is exported as a TOF list and the above steps are repeated individually, for the +20, 21, 22, 23, 24, and 25 charge states.
The masses and peak intensities of KRAS G12C protein species were measured using a Dionex RSLCnano system (Thermo Scientific) connected to a Q Exactive Plus mass spectrometer (Thermo Scientific).
[…] of sample was each loaded onto a Aeris™ 3.6 μm WIDEPORE C4 200 A, LC Column 50×2.1 mm column maintained at 40° C. at a flow rate of 600 μL/min with […] (0.1% formic acid in acetonitrile). The liquid chromatography conditions were 20% solvent B for 1 minute, 20% to 60% solvent B for 1.5 minutes, 60% to 90% solvent for 0.5 minute, 90% solvent B for 0.2 minute, 90% to 20% solvent B for 0.2 minute, and then equilibrated for 1.6 minute before the following sample injection. The flow rate was maintained at 600 μL/min throughout the sample analysis.
The mass spectrometer was operated in profile mode at a resolution of 17500, 5 microscans, using 50 msec max injection time and an AGC target of 1×10^6, and a full mass range from 800-1850 m/z was recorded. The HCD trapping gas was optimized for maximum sensitivity for intact proteins. […]
As for `C=CC(=O)N1CC(c2ccc3c(c2)CCCN(c2cccc4[nH]ncc24)C3)C1` [Compound 5, 1-(3-(2-(1H-indazol-4-yl)-2,3,4,5-tetrahydro-1H-benzo[c]azepin-7-yl)azetidin-1-yl)prop-2-en-1-one], the Binding % result is recorded as “+ (+ indicates binding activity up to 5%)”. Take `C=CC(=O)N1CC(c2ccc3c(c2)CN(c2cc(O)cc4ccccc24)C3)C1` [Compound 6, 1-(3-(2-(3-hydroxynaphthalen-1-yl)isoindolin-5-yl)azetidin-1-yl)prop-2-en-1-one]: the Binding % result is reported as “+++ (+++ indicates binding activity greater than 50%)”. In the case of `C=CC(=O)N1CC(c2ccc3c(c2)CN(c2cc(O)cc4ccccc24)C3=O)C1` [Compound 8, 5-(1-acryloylazetidin-3-yl)-2-(3-hydroxynaphthalen-1-yl)isoindolin-1-one] it was “+++ (+++ indicates binding activity greater than 50%)”; in that of `C=CC(=O)N1CC(c2ccc3c(c2)CN(c2c(C)ccc4[nH]ncc24)C3=O)C1` [Compound 9, 5-(1-acryloylazetidin-3-yl)-2-(5-methyl-1H-indazol-4-yl)isoindolin-1-one], “+ (+ indicates binding activity up to 5%)”. As to `C=CC(=O)N1CC(c2ccc3c(c2)C(=O)N(c2cc(O)cc4ccccc24)C3)C1` [Compound 10, 6-(1-acryloylazetidin-3-yl)-2-(3-hydroxynaphthalen-1-yl)isoindolin-1-one], the Binding % result is given as “++ (++ indicates binding activity from 5% to 50%)”. For the compound `C=CC(=O)N1CC(c2ccc3c(c2)C(=O)N(c2c(C)ccc4[nH]ncc24)C3)C1` [Compound 11, 6-(1-acryloylazetidin-3-yl)-2-(5-methyl-1H-indazol-4-yl)isoindolin-1-one], the Binding % entry is on record as “+ (+ indicates binding activity up to 5%)”. Take `C=CC(=O)N1CC(c2ccc3[nH]c(-c4cc(O)cc5ccccc45)cc3c2)C1` [Compound 14, 1-(3-(2-(3-hydroxynaphthalen-1-yl)-1H-indol-5-yl)azetidin-1-yl)prop-2-en-1-one]: the Binding % result is recorded as “+++ (+++ indicates binding activity greater than 50%)”. Take `C=CC(=O)N1CC(c2ccc3c(=O)n(-c4cc(O)cc5ccccc45)ccc3c2)C1` [Compound 18, 6-(1-acryloylazetidin-3-yl)-2-(3-hydroxynaphthalen-1-yl)isoquinolin-1(2H)-one]: the Binding % entry is reported as “+++ (+++ indicates binding activity greater than 50%)”. In the case of `C=CC(=O)N1CC(c2ccc3c(=O)n(-c4c(C)ccc5[nH]ncc45)ccc3c2)C1` [Compound 19, 6-(1-acryloylazetidin-3-yl)-2-(5-methyl-1H-indazol-4-yl)isoquinolin-1(2H)-one] it was “+ (+ indicates binding activity up to 5%)”; in that of `C=CC(=O)N1CC(c2ccc3cn(-c4cc(O)cc5ccccc45)c(=O)cc3c2)C1` [Compound 22, 6-(1-acryloylazetidin-3-yl)-2-(3-hydroxynaphthalen-1-yl)isoquinolin-3(2H)-one], “+ (+ indicates binding activity up to 5%)”. In the case of `C=CC(=O)N1CC(c2ccc3cn(-c4c(C)ccc5[nH]ncc45)c(=O)cc3c2)C1` [Compound 23, 6-(1-acryloylazetidin-3-yl)-2-(5-methyl-1H-indazol-4-yl)isoquinolin-3(2H)-one] it was “+ (+ indicates binding activity up to 5%)”. With `C=CC(=O)N1CC(c2ccc3c(c2)NC(=O)N(c2cc(O)cc4ccccc24)C3)C1` [Compound 24, 7-(1-acryloylazetidin-3-yl)-3-(3-hydroxynaphthalen-1-yl)-3,4-dihydroquinazolin-2(1H)-one], the Binding % result was “+++ (+++ indicates binding activity greater than 50%)”. Then `C=CC(=O)N1CC(c2ccc3c(c2)NC(=O)N(c2c(C)ccc4[nH]ncc24)C3)C1` [Compound 25, 7-(1-acryloylazetidin-3-yl)-3-(5-methyl-1H-indazol-4-yl)-3,4-dihydroquinazolin-2(1H)-one], with “++ (++ indicates binding activity from 5% to 50%)”; and `C=CC(=O)N1CC(c2ccc3cc(-c4cc(O)cc5ccccc45)ncc3c2)C1` [Compound 26, 1-(3-(3-(3-hydroxynaphthalen-1-yl)isoquinolin-7-yl)azetidin-1-yl)prop-2-en-1-one], with “++ (++ indicates binding activity from 5% to 50%)”; and `C=CC(=O)N1CCC(c2ccc3c(c2)CCN(c2c(C)ccc4[nH]ncc24)C3=O)C1` (centres unmarked) [Compound 32, 6-(1-acryloylpyrrolidin-3-yl)-2-(5-methyl-1H-indazol-4-yl)-3,4-dihydroisoquinolin-1(2H)-one], with “+ (+ indicates binding activity up to 5%)”. In the case of `C=CC(=O)N1CC(c2ccc3cc(-c4cc(O)cc5ccccc45)[nH]c3c2)C1` [Compound 33, 1-(3-(2-(3-hydroxynaphthalen-1-yl)-1H-indol-6-yl)azetidin-1-yl)prop-2-en-1-one], the Binding % entry was “++ (++ indicates binding activity from 5% to 50%)”. Take `C=CC(=O)N1CC(c2ccc3cc(-c4cc(O)cc5ccccc45)n(CC(N)=O)c3c2)C1` [Compound 34, 2-(6-(1-acryloylazetidin-3-yl)-2-(3-hydroxynaphthalen-1-yl)-1H-indol-1-yl)acetamide]: the Binding % entry is recorded as “+ (+ indicates binding activity up to 5%)”.

As for `C=CC(=O)N1CC(c2ccc3cc(-c4c(C)ccc5[nH]ncc45)[nH]c3c2)C1` [Compound 35, 1-(3-(2-(5-methyl-1H-indazol-4-yl)-1H-indol-6-yl)azetidin-1-yl)prop-2-en-1-one], the Binding % result was “+ (+ indicates binding activity up to 5%)”. In the case of `C=CC(=O)N1CC(c2ccc3c(Nc4cc(O)cc5ccccc45)ncnc3c2)C1` [Compound 36, 1-(3-(4-((3-hydroxynaphthalen-1-yl)amino)quinazolin-7-yl)azetidin-1-yl)prop-2-en-1-one] it was “+ (+ indicates binding activity up to 5%)”; in that of `C=CC(=O)N1CC(Nc2cccc3c(-c4cc(O)cc5ccccc45)ccnc23)C1` [Compound 37, 1-(3-((4-(3-hydroxynaphthalen-1-yl)quinolin-8-yl)amino)azetidin-1-yl)prop-2-en-1-one], “+++ (+++ indicates binding activity greater than 50%)”. In the case of `C=CC(=O)N1CC(c2ccc3c(Nc4c(C)ccc5[nH]ncc45)ncnc3c2)C1` [Compound 38, 1-(3-(4-((5-methyl-1H-indazol-4-yl)amino)quinazolin-7-yl)azetidin-1-yl)prop-2-en-1-one] it was “+ (+ indicates binding activity up to 5%)”; in that of `C=CC(=O)N1CC(NC(=O)c2ccc3c(-c4cc(O)cc5ccccc45)ccnc3c2)C1` [Compound 39, N-(1-acryloylazetidin-3-yl)-4-(3-hydroxynaphthalen-1-yl)quinoline-7-carboxamide], “++ (++ indicates binding activity from 5% to 50%)”. In the case of `C=CC(=O)N1CC(c2ccc3c(c2)cc(-c2cc(O)cc4ccccc24)n3CC(N)=O)C1` [Compound 40, 2-(5-(1-acryloylazetidin-3-yl)-2-(3-hydroxynaphthalen-1-yl)-1H-indol-1-yl)acetamide] it was “++ (++ indicates binding activity from 5% to 50%)”.
